In test [1] the test system is human acute monocytic leukemia cell line MV-4-11. Nature of the test: Assay 2: cell proliferation assay (ATP quantitation, CellTiter-Glo), MV-4-11. The format is cell-based. The settings on record: MV-4-11 cells. A digest of the protocol:
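MV-4-11 cells, 1.67×10^4 per well in medium with 10% FBS, were exposed to compound for 72 h at 37° C., 5% CO2; HL-60 cells served as toxicity control. Proliferation read as ATP content by CellTiter-Glo luminescence.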
On the technique in general: In ATP-based viability assays light output follows the ATP content of the culture.

For test [2], the target named is T1, biotinylated wild-type menin and MLL-AF9 fusion protein (menin/MLL binding) (Homo sapiens, UniProt O00255).
T1 construct: made in house; host or cells: menin: E. coli; MLL-AF9-FLAG: HEK293 cells, used as cleared lysate
T1 sequence (O00255 1-610): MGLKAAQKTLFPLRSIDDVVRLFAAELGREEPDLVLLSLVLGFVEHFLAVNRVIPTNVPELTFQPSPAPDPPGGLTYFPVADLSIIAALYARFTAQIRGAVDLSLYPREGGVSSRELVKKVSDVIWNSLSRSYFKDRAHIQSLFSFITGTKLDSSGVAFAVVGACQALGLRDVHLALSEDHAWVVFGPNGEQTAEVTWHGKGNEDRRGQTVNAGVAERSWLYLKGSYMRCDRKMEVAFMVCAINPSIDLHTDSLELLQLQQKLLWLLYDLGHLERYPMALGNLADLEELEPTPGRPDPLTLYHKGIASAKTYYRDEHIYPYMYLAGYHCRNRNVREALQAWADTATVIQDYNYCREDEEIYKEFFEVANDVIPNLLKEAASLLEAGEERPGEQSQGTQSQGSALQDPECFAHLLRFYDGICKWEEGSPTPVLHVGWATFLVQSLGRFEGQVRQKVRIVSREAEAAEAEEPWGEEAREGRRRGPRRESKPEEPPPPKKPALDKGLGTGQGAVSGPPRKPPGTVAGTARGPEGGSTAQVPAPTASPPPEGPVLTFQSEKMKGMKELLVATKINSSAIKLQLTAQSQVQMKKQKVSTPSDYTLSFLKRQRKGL
Briefly: Assay 1: menin/MLL binding AlphaLISA assay, wild-type menin. To be noted: Table 30; column head does not say wild-type or mutated menin. A digest of the protocol: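 Compound was preincubated 30 min at room temperature with biotinylated menin (5 nM) and MLL-AF9-FLAG lysate from HEK293 cells, pH 7.4 buffer with 5% DMSO and DTT. Bead-based Alpha signal after 60 min with streptavidin donor and anti-FLAG acceptor beads; four-parameter logistic fit gave IC50.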
Background: Alpha assays give light when donor and acceptor beads are brought close together.

As for `CC(C)N(C(=O)c1cc(F)ccc1Oc1cncnc1N1CC2(CCN(CC3CCOCC3)C2)C1)C(C)C` [Example 111, 5-fluoro-N,N-diisopropyl-2-((4-(6-((tetrahydro-2H-pyran-4-yl)methyl)-2,6-diazaspiro[3.4]octan-2-yl)pyrimidin-5-yl)oxy)benzamide], the concentration giving a half-maximal response (EC50) in test [1] (Homo sapiens, MV4-11, 72 h) was below 100 nM. Besides, the IC50 in test [2] is below 100 nM.

For the molecule “5-((7-(5-(4-fluoro-2-(3-fluoro-3-methylbutyl)phenoxy) pyrimidin-4-yl)-2,7-diazaspiro[4.4]nonan-2-yl)methyl)-1H-benzo[d]imidazol-2(3H)-one [Example 35]”, the EC50 in test [1] (72 h) is 100 to 1000 nM. Besides, in test [2], the IC50 was below 100 nM.

`CC(=O)Nc1ccc(CN2CCC3(CCN(c4ncncc4Oc4ccc(F)cc4-c4ccc(C#N)cc4C4CC4)C3)C2)cc1Cl` (stereo not shown) [Example 172, N-(2-chloro-4-((7-(5-((4′-cyano-2′-cyclopropyl-5-fluoro-[1,1′-biphenyl]-2-yl)oxy)pyrimidin-4-yl)-2,7-diazaspiro[4.4]nonan-2-yl)methyl)phenyl) acetamide] gave a 50% effective concentration (EC50) in test [1] (Homo sapiens, MV4-11, 72 h) of 100 to 1000 nM. The half-maximal inhibitory concentration (IC50) in test [2] is below 100 nM.

Take `CC(C)c1ncncc1-c1cc(F)ccc1Oc1cncnc1N1CCC2(CN(C(=O)Cc3ccc(C#N)cc3)C2)C1` [Example 130, 4-(2-(6-(5-(4-fluoro-2-(4-isopropylpyrimidin-5-yl)phenoxy)pyrimidin-4-yl)-2,6-diazaspiro[3.4]octan-2-yl)-2-oxoethyl)benzonitrile]: the concentration for a half-maximal effect (EC50) in test [1] (Homo sapiens, MV4-11, 72 h) was 100 to 1000 nM. Besides, in test [2], the IC50 was below 100 nM.

With `CC(C)N(C)C(=O)c1cc(F)ccc1Oc1cncnc1N1CCC2(CCN(Cc3ccc4c(C#N)n[nH]c4c3)C2)C1` (stereo not shown) [Example 146, 2-((4-(7-((3-cyano-1H-indazol-6-yl)methyl)-2,7-diazaspiro[4.4]nonan-2-yl)pyrimidin-5-yl)oxy)-5-fluoro-N-isopropyl-N-methylbenzamide], in test [1] (Homo sapiens, MV4-11, 72 h), the EC50 is 100 to 1000 nM. The molecule further came in with an IC50 in test [2] below 100 nM.

The molecule `CC(C)n1nc(C(F)(F)F)cc1-c1cc(F)ccc1Oc1cncnc1N1CCC2(CCN(Cc3ccc4[nH]c(=O)[nH]c4c3)C2)C1` (stereo not shown) [Example 217, 5-((7-(5-(4-fluoro-2-(1-isopropyl-3-(trifluoromethyl)-1H-pyrazol-5-yl)phenoxy)pyrimidin-4-yl)-2,7-diazaspiro[4.4]nonan-2-yl)methyl)-1,3-dihydro-2H-benzo[d]imidazol-2-one] had an EC50 in test [1] (Homo sapiens, MV4-11, 72 h) below 100 nM. In test [2], this molecule came in with an IC50 below 100 nM.

`CC(C)N(C(=O)c1cc(F)ccc1Oc1cncnc1N1CC2(CCN(CC3CCC4(CC3)OCCO4)CC2)C1)C(C)C` [Example 100, 2-((4-(7-((1,4-dioxaspiro[4.5]decan-8-yl)methyl)-2,7-diazaspiro[3.5]nonan-2-yl)pyrimidin-5-yl)oxy)-5-fluoro-N,N-diisopropylbenzamide] yielded an EC50 in test [1] (Homo sapiens, MV4-11, 72 h) of 100 to 1000 nM. The half-maximal inhibitory concentration (IC50) in test [2] is below 100 nM.

As for `CC(C)N(C)C(=O)c1cc(F)ccc1Oc1cncnc1N1CC2(CC(NC3CCOCC3)C2)C1` [Example 92, 5-fluoro-N-isopropyl-N-methyl-2-((4-(6-((tetrahydro-2H-pyran-4-yl)amino)-2-azaspiro[3.3]heptan-2-yl)pyrimidin-5-yl)oxy)benzamide], in test [1] (Homo sapiens, MV4-11, 72 h), the EC50 was in the range of 100 to 1000 nM. The same molecule had an IC50 in test [2] below 100 nM.

Turning to `CC(C)N(C)C(=O)c1cc(F)ccc1Oc1cncnc1N1CCC2(CCN(Cc3ccc4c(c3)NC(=O)CO4)C2)C1` (stereo not shown) [Example 210, 5-fluoro-N-isopropyl-N-methyl-2-((4-(7-((3-oxo-3,4-dihydro-2H-benzo[b][1,4]oxazin-6-yl)methyl)-2,7-diazaspiro[4.4]nonan-2-yl)pyrimidin-5-yl)oxy)benzamide], the concentration for a half-maximal effect (EC50) in test [1] (Homo sapiens, MV4-11, 72 h) lay within 100 to 1000 nM. For the same molecule, the half-maximal inhibitory concentration (IC50) in test [2] is below 100 nM.

On to `CC(C)N(C(=O)c1cc(F)ccc1Oc1cncnc1N1CCC2(CC(N)C(Cc3ccc4[nH]c(=O)[nH]c4c3)C2)C1)C(C)C` (single isomer, unassigned) [Example 25, 2-((4-(7-amino-8-((2-oxo-2,3-dihydro-1H-benzo[d]imidazol-5-yl)methyl)-2-azaspiro[4.4]nonan-2-yl)pyrimidin-5-yl)oxy)-5-fluoro-N,N-diisopropylbenzamide], for which the EC50 in test [1] (72 h) was at least 1000 nM. The molecule also returned an IC50 in test [2] below 100 nM.

Take `CC(C)c1ncncc1-c1cc(F)ccc1Oc1cncnc1N1CCC2(CCN(Cc3ccc4[nH]c(=O)[nH]c4c3)C2)C1` (single isomer, unassigned) [Example 160B, 5-((7-(5-(4-fluoro-2-(4-isopropylpyrimidin-5-yl)phenoxy)pyrimidin-4-yl)-2,7-diazaspiro[4.4]nonan-2-yl)methyl)-1,3-dihydro-2H-benzo[d]imidazol-2-one]: the concentration for a half-maximal effect (EC50) in test [1] (72 h) was below 100 nM. The half-maximal inhibitory concentration (IC50) in test [2] was below 100 nM.

For `N#Cc1ccc(-c2cc(F)ccc2Oc2cncnc2N2CC3(CN(CC4CCC(O)CC4)C3)C2)c(C2CC2)c1` (stereo not shown) [Example 151, 2-cyclopropyl-5′-fluoro-2′-((4-(6-((4-hydroxycyclohexyl)methyl)-2,6-diazaspiro[3.3]heptan-2-yl)pyrimidin-5-yl)oxy)-[1,1′-biphenyl]-4-carbonitrile], the half-maximal effective concentration (EC50) in test [1] (Homo sapiens, MV4-11, 72 h) is at least 1000 nM. This molecule displayed an IC50 in test [2] below 100 nM.

`CCc1ncccc1-c1cc(F)ccc1Oc1cncnc1N1CCC2(CCN(Cc3ccc4[nH]c(=O)[nH]c4c3)C2)C1` (stereo not shown) [Example 234, 5-((7-(5-(2-(2-ethylpyridin-3-yl)-4-fluorophenoxy)pyrimidin-4-yl)-2,7-diazaspiro [4.4]nonan-2-yl)methyl)-1,3-dihydro-2H-benzo[d]imidazol-2-one] displayed an EC50 in test [1] (Homo sapiens, MV4-11, 72 h) below 100 nM. This molecule also displayed an IC50 in test [2] below 100 nM.

`CC(C)(O)CCc1cc(F)ccc1Oc1cncnc1N1CCC2(CCN(Cc3ccc4[nH]c(=O)[nH]c4c3)C2)C1` (stereo not shown) [Example 36, 5-((7-(5-(4-fluoro-2-(3-hydroxy-3-methylbutyl)phenoxy)pyrimidin-4-yl)-2,7-diazaspiro[4.4]nonan-2-yl)methyl)-1H-benzo[d]imidazol-2(3H)-one] registered a concentration giving a half-maximal response (EC50) in test [1] (Homo sapiens, MV4-11, 72 h) of 100 to 1000 nM. In addition, the half-inhibitory concentration (IC50) in test [2] was below 100 nM.

Regarding `CCN(C(=O)c1cc(F)ccc1Oc1cncnc1N1CC2(CCN(C[C@H]3CC[C@H](NS(C)(=O)=O)CC3)CC2)C1)C(C)C` [Example 238, N-ethyl-5-fluoro-N-isopropyl-2-((4-(7-(((1r,4r)-4-(methylsulfonamido)cyclohexyl)methyl)-2,7-diazaspiro[3.5]nonan-2-yl)pyrimidin-5-yl)oxy)benzamide], in test [1] (Homo sapiens, MV4-11, 72 h), the EC50 is below 100 nM. The IC50 in test [2] was below 100 nM.

Regarding `CC(=O)N[C@H]1CC[C@H](CCN2CC3(C2)CN(c2ncncc2Oc2ccc(F)cc2-c2ccc(C#N)cc2C2CC2)C3)CC1` [Example 143, N-((1r,4r)-4-(2-(6-(5-((4′-cyano-2′-cyclopropyl-5-fluoro-[1,1′-biphenyl]-2-yl)oxy)pyrimidin-4-yl)-2,6-diazaspiro[3.3]heptan-2-yl)ethyl)cyclohexyl) acetamide], in test [1] (Homo sapiens, MV4-11, 72 h), the EC50 was at least 1000 nM. The molecule also came in with an IC50 in test [2] below 100 nM.

The molecule `CC(C)N(C(=O)c1cc(F)ccc1Oc1cncnc1N1CCC2(CC(O)C(Cc3ccc4[nH]c(=O)[nH]c4c3)C2)C1)C(C)C` (single isomer, unassigned) [Example 23A, 5-fluoro-2-((4-(7-hydroxy-8-((2-oxo-2,3-dihydro-1H-benzo[d]imidazol-5-yl)methyl)-2-azaspiro[4.4]nonan-2-yl)pyrimidin-5-yl)oxy)-N,N-diisopropylbenzamide] had a concentration for a half-maximal effect (EC50) in test [1] (72 h) of 100 to 1000 nM. Besides, the concentration for half-maximal inhibition (IC50) in test [2] is below 100 nM.

In test [1] (Homo sapiens, MV4-11, 72 h), `CC(C)N(C(=O)c1cc(F)ccc1Oc1cncnc1N1CC2(CC(NC3CCOCC3)C2)C1)C(C)C` [Example 239, 5-fluoro-N,N-diisopropyl-2-((4-(6-((tetrahydro-2H-pyran-4-yl)amino)-2-azaspiro[3.3]heptan-2-yl)pyrimidin-5-yl)oxy)benzamide] returned a concentration giving a half-maximal response (EC50) below 100 nM. The molecule further gave an IC50 in test [2] below 100 nM.

In test [1] (Homo sapiens, MV4-11, 72 h), `Cn1c(-c2cc(F)ccc2Oc2cncnc2N2CC3(CCN(CC4CCC(NS(C)(=O)=O)CC4)CC3)C2)c(C2CC2)ccc1=O` (stereo not shown) [Example 80, N-(4-((2-(5-(2-(3-cyclopropyl-1-methyl-6-oxo-1,6-dihydropyridin-2-yl)-4-fluorophenoxy)pyrimidin-4-yl)-2,7-diazaspiro[3.5]nonan-7-yl)methyl)cyclohexyl) methanesulfon-amide] returned an EC50 below 100 nM. In addition, in test [2], the IC50 was below 100 nM.

Molecule `CC(C)c1ncncc1-c1cc(F)ccc1Oc1cncnc1N1CC2(CC(NCc3ccc(F)cc3)CO2)C1` (stereo not shown) [Example 18, 2-(5-(4-fluoro-2-(4-isopropylpyrimidin-5-yl)phenoxy)pyrimidin-4-yl)-N-(4-fluorobenzyl)-5-oxa-2-azaspiro[3.4]octan-7-amine] came in with a concentration giving a half-maximal response (EC50) in test [1] (Homo sapiens, MV4-11, 72 h) of 100 to 1000 nM. Also, the IC50 in test [2] is below 100 nM.

As a reminder, the EC50 is the concentration giving half of the maximal effect. The term IC50 denotes the concentration that inhibits the measured activity by half.

These data come from patent publication US12312359B2 (Vitae Pharmaceuticals, LLC, priority 2016, dated 2025).
